Tests used:
[1] = target: T1, Phosphorylase b kinase gamma catalytic chain, liver/testis isoform (Homo sapiens) (UniProt P15735); settings: at 10 µM
T1 sequence (whole entry): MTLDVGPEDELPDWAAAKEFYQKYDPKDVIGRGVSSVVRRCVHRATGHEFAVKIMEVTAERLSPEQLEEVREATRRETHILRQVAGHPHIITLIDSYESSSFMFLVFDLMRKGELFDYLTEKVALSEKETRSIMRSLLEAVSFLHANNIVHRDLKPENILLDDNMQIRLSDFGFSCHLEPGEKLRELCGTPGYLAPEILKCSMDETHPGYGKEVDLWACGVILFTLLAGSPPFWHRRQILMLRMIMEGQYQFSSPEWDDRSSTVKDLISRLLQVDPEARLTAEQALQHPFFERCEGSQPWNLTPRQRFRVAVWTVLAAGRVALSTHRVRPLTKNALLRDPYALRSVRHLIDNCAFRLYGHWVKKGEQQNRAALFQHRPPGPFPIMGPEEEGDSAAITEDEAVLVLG

[2] = target: Angiopoietin-1 receptor (Homo sapiens) (UniProt Q02763); assay: Selectivity interaction (Upstate Kinase Profiler service (Millipore)) EUB0000056c TEK; settings: at 1 µM
Chain of Angiopoietin-1 receptor (Homo sapiens) (Q02763 whole entry): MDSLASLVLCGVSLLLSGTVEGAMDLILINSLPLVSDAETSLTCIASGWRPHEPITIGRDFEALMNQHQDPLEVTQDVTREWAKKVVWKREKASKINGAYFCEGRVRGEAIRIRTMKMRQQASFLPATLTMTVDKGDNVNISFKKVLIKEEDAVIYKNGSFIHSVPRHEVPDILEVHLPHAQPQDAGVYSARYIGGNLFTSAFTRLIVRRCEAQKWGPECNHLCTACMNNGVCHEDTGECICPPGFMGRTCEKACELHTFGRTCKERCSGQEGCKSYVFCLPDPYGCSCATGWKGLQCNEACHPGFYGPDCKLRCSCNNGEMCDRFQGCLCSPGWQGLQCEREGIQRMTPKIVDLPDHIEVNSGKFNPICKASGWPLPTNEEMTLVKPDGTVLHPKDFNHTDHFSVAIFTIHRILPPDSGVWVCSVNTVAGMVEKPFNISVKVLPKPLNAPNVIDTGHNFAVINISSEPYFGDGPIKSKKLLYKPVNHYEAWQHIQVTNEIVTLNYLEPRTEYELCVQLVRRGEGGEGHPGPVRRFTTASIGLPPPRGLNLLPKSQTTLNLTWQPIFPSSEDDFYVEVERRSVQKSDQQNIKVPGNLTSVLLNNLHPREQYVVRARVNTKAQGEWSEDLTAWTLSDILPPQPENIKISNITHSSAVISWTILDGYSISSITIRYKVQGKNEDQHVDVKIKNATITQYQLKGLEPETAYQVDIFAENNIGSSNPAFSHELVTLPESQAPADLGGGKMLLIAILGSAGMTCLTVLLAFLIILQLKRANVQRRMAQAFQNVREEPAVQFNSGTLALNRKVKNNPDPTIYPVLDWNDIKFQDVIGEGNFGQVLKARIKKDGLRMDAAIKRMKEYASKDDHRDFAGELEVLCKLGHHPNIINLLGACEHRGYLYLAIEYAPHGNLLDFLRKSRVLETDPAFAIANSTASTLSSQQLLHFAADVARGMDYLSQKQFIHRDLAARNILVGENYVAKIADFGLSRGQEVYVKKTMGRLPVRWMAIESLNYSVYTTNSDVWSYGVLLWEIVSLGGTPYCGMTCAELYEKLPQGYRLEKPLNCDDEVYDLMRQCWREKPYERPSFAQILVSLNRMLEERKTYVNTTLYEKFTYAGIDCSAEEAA

[3] = target: T2, Scaffold protein ILK (Homo sapiens) (UniProt Q13418); assay: Selectivity interaction (ActivX KiNativ screen (kinase selectivity in THP-1 cell lysates)) EUB0000639a ILK; type: subcellular; settings: lysate, at 1 µM
T2 sequence (whole entry): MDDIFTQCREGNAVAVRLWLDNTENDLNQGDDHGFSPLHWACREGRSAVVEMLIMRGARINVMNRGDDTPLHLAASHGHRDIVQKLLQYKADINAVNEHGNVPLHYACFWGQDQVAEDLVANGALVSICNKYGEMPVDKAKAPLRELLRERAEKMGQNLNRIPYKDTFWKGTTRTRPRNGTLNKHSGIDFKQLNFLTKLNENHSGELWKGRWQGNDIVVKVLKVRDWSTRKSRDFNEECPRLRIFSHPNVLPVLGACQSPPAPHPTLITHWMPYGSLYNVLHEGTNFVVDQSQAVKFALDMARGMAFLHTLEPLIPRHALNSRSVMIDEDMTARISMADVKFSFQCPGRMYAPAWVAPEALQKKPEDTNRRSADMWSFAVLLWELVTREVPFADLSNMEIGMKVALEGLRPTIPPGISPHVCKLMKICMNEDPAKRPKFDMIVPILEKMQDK

[4] = target: T3, Tyrosine-protein kinase Mer (Homo sapiens) (UniProt Q12866); assay: Selectivity interaction (KinomeScan (DiscoverX)) EUB0000045b MERTK
T3 sequence (whole entry): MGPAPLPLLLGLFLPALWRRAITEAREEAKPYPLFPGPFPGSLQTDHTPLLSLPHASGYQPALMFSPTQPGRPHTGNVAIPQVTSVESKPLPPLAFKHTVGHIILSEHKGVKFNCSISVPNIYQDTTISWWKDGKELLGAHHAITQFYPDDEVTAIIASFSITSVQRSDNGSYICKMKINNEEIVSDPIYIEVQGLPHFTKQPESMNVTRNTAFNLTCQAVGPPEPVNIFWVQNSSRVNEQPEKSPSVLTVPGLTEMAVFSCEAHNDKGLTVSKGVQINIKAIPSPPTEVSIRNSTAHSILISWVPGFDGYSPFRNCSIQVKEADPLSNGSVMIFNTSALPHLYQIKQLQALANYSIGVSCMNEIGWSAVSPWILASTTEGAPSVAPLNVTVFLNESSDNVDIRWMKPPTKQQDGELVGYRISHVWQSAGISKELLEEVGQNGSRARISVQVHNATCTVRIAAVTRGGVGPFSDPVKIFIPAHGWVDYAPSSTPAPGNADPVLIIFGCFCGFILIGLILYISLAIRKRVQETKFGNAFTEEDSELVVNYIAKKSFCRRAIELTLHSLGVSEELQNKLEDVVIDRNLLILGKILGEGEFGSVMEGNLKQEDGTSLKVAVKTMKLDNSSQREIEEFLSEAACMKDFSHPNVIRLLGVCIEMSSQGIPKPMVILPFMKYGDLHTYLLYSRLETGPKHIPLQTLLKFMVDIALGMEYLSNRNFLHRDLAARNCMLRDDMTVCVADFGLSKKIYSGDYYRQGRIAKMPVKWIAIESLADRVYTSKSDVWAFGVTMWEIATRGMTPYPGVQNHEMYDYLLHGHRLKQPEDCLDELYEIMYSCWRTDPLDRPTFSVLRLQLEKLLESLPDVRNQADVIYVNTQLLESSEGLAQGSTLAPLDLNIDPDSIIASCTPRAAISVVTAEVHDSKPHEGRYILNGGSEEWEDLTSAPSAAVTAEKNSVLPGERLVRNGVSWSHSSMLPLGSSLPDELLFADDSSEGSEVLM

[5] = target: Proto-oncogene tyrosine-protein kinase ROS (Homo sapiens) (UniProt P08922); assay: Selectivity interaction (KinomeScan (DiscoverX)) EUB0001619a ROS1; settings: at 1 µM
Chain of Proto-oncogene tyrosine-protein kinase ROS (Homo sapiens) (P08922 whole entry): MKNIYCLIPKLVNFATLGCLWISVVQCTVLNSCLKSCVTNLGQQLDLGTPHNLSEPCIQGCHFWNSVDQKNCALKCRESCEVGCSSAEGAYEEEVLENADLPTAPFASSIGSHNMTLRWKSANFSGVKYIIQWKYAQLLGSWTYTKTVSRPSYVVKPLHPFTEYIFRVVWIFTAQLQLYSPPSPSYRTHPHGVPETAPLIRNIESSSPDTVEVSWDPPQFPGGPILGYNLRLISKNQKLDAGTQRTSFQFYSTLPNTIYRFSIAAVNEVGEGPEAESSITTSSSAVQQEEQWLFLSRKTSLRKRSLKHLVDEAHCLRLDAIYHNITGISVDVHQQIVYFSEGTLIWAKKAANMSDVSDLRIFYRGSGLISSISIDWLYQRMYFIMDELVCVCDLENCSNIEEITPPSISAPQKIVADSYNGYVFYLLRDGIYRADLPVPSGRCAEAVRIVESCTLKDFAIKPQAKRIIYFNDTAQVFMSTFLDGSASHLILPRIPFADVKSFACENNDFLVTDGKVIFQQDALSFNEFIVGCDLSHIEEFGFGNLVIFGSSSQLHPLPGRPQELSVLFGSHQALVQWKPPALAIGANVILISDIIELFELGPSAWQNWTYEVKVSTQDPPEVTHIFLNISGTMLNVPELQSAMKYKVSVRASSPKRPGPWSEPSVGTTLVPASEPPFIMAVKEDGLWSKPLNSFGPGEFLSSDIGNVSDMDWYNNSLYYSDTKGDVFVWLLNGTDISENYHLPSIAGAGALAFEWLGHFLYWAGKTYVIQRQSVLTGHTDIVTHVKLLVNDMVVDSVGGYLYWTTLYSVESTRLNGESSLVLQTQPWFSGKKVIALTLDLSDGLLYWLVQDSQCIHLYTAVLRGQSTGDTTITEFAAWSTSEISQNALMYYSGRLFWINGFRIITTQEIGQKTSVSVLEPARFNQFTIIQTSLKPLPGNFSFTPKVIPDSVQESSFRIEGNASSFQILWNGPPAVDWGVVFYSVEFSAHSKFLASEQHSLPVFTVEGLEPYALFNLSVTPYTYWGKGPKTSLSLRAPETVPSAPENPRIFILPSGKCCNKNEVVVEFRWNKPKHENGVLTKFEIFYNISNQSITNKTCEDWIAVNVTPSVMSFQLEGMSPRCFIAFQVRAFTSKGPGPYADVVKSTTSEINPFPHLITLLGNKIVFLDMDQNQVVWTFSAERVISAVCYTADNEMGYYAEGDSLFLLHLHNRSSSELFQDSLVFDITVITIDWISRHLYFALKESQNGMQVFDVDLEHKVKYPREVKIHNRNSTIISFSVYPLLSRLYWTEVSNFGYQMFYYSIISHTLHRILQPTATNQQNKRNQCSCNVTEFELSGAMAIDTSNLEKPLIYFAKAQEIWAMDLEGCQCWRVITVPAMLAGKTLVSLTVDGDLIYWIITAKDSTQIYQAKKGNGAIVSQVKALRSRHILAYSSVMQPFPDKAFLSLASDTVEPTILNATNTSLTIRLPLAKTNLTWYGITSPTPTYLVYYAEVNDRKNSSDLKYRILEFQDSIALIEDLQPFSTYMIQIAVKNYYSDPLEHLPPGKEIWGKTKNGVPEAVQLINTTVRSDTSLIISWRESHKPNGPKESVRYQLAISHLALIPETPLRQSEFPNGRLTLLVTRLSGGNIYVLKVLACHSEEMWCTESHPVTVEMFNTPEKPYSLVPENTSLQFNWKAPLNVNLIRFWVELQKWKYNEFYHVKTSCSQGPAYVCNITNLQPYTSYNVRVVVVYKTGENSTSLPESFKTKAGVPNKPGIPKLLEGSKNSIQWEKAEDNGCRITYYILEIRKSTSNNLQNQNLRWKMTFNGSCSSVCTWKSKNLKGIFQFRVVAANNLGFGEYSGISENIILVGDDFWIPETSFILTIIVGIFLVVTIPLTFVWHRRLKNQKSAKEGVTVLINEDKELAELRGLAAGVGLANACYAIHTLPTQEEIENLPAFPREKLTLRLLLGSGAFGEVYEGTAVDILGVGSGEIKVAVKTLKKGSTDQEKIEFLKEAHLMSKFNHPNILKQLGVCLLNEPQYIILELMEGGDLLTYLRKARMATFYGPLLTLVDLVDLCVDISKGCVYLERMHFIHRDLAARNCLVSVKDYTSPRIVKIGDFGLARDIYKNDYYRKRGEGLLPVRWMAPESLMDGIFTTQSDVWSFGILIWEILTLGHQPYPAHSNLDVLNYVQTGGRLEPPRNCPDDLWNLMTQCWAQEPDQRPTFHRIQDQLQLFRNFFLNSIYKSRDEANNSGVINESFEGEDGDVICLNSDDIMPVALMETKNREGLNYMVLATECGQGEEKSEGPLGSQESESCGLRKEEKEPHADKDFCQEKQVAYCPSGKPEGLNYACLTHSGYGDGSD

CCN(CC)CCCCNc1ncc2cc(-c3cc(OC)cc(OC)c3)c(NC(=O)NC(C)(C)C)nc2n1
% of control [1]: 100%

Cc1ccc(-c2ccc3c(ccc4sc5c(c43)NC[C@@H](C)NC5=O)n2)cn1
% of inhibition [2]: -31%

CC[C@@H]1[C@H](F)C(=O)N[C@@H]1COc1nccc2cc(C(N)=O)c(OC)cc12 [ZIMLOVISERTIB]
% of inhibition [3]: -17.5%

C=CC(=O)Nc1cc(-n2c(=O)ccc3cnc4ccc(-c5ccc(NS(C)(=O)=O)cc5)cc4c32)ccc1C
% of control ([4]; at 1 µM): 72%
% of control ([4]; at 10 µM): 100%

N#Cc1cccc(-c2c[nH]c3ncnc(N4CCOCC4)c23)c1
% of control [5]: 90%
